The values that follow come from US20090220562A1, “Osteogenic and anti-adipogenic oxysterols” (priority 2005, published 2009).

SMILES strings stand for the structures.

This experiment relates to lipoprotein lipase (LPL) and adipocyte P2 gene (aP2). The experiment is described as follows: Northern blotting for adipogenic genes in troglitazone-treated M2 cells. It counts as cell-based, mouse. The following applies: 10 μM Tro with 10 μM 20S, 10 days. On the procedure: RNA isolation and Northern blot analysis—Following treatment of cells under appropriate experimental conditions, total RNA was isolated using the RNA isolation kit from Stratagene (La Jolla, Calif., U.S.A.). Total RNA ([…]) was run on a 1% agarose/formaldehyde gel and transferred to Duralon-UV membranes (Strategene, CA, U.S.A.) and cross-linked with UV light. The membranes were hybridized overnight at 60 degree C. with ^32P-labeled mouse osteocalcin cDNA probe, mouse lipoprotein lipase (LPL), mouse adipocyte protein 2 (aP^2) PCR-generated probes, human 28S or 18S rRNA probes obtained from Geneka Biotechnology (Montreal, Quebec, Canada) and Maxim Biotech (San Francisco, Calif., U.S.A.), respectively. […] The extent of gene induction was determined by densitometry.
Test 2: (A) M2 cells at confluence were treated in RPMI containing 10% FBS with control vehicle or 10 μM troglitazone (Tro) in the absence or presence of 10 μM 20S or 22S-hydroxycholesterol. After 10 days, adipocytes were visualized by oil Red O staining and quantified by light microscopy, shown in (B). […] After 10 days, total RNA was isolated and analyzed for lipoprotein lipase (LPL), adipocyte P2 gene (aP2) or 18S rRNA expression by Northern blotting as described (Ref). […]

Turning to `CC(C)CCC[C@](C)(O)[C@H]1CC[C@H]2[C@@H]3CC=C4C[C@@H](O)CC[C@]4(C)[C@H]3CC[C@@]21C` [20S-hydroxycholesterol], the “expression of adipocyte P2 gene (aP2)” value was “inhibition of the expression” and the “expression of lipoprotein lipase (LPL)” value is given as “inhibition of the expression”.
